Like-named read-outs stand apart in the source and are kept apart here.
System: HCV proteins in Rep5.1 cells (replicon cell line)
Assay: Inhibitory activity of HCV: cell-based ELISA in replicon cell line Rep5.1 (decrease of HCV proteins)
Parameters: species or system hepatitis C virus
Conditions: Rep5.1 cells, 72 hours with drug
In short: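 Rep5.1 replicon cells (5000/well, DMEM-10 with 500 μg/ml G418) were given serially diluted drug 4 h after seeding. After 72 h, cells were fixed in methanol/acetone and HCV proteins detected by cell-based ELISA using replicon-specific patient plasma antibodies. IC50 is the concentration giving 50% protein decrease versus the no-drug control.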

[1] = Hepatitis C virus, 72 h, concentration at which 50% of HCV proteins was decreased, Table 2, read-out: IC50
[2] = Hepatitis C virus, 72 h, decrease of HCV proteins measured by HCV antibody, Table 1, read-out: Level (IC50 values classified)
[3] = concentration at which 50% of HCV proteins was decreased, Table 2, read-out: IC50

| SMILES | IC50 [1] [nM] | IC50 [2] [nM] | IC50 [3] [nM] |
| --- | --- | --- | --- |
| CC1=C(C(=O)OCC2CCC2)CNC(=S)N1 [Compound 80, 6-methyl-2-thioxo-1,2,3,4-tetrahydro-pyrimidine-5-carboxylic acid cyclobutylmethyl ester] | 2300 | 1000 to 10000 | – |
| CC1=C(C(=O)OCCc2ccsc2)C(C(F)(F)F)NC(=S)N1 (centres unmarked) [8′, 6-methyl-2-thioxo-4-trifluoromethyl-1,2,3,4-tetrahydro-pyrimidine-5-carboxylic acid 2-thiophen-3-yl-ethyl ester] | 21000 | > 20000 | – |
| CC1=C(C(=O)OCc2sccc2-n2cccc2)CNC(=S)N1 [Compound 220, 6-methyl-2-thioxo-1,2,3,4-tetrahydro-pyrimidine-5-carboxylic acid 3-pyrrol-1-yl-thiophen-2-ylmethyl ester] | 800 | < 1000 | – |
| CC1=C(C(=O)OCCSc2nc3ccccc3s2)CNC(=S)N1 [Compound 224, 6-methyl-2-thioxo-1,2,3,4-tetrahydro-pyrimidine-5-carboxylic acid 2-(benzothiazol-2-ylsulfanyl)-ethyl ester] | 700 | < 1000 | – |
| C=CCN(C)c1ccc(CCOC(=O)C2=C(C)NC(=S)NC2CO)cc1[N+](=O)[O-] (centres unmarked) [96″, 4-Hydroxymethyl-6-methyl-2-thioxo-1,2,3,4-tetrahydro-pyrimidine-5-carboxylic acid 2-[4-(allyl-methyl-amino)-3-nitro-phenyl]-ethyl ester] | 900 | < 1000 | – |
| CC1=C(C(=O)OCc2cccc3ccccc23)CNC(=S)N1 [Compound 10, 6-methyl-2-thioxo-1,2,3,4-tetrahydro-pyrimidine-5-carboxylic acid naphthalen-1-ylmethyl ester] | 1000 | < 1000 | – |
| CC1=C(C(=O)OCC=Cc2ccsc2)C(CF)NC(=S)N1 (centres unmarked) [Compound 269, 4-fluoromethyl-6-methyl-2-thioxo-1,2,3,4-tetrahydro-pyrimidine-5-carboxylic acid 3-thiophen-3-yl-allyl ester] | 5000 | 1000 to 10000 | – |
| CC1=C(C(=O)OCc2nc3ccccc3o2)CNC(=S)N1 [Compound 238, 6-methyl-2-thioxo-1,2,3,4-tetrahydro-pyrimidine-5-carboxylic acid benzoxazol-2-ylmethyl ester] | 3000 | 1000 to 10000 | – |
| O=C(OCc1ccccc1)C1=C(c2cccc3ccccc23)NC(=S)NC1 [Compound 17, 6-naphthalen-1-yl-2-thioxo-1,2,3,4-tetrahydro-pyrimidine-5-carboxylic acid benzyl ester] | 100000 | > 20000 | – |
| CCc1ccc(CCOC(=O)C2=C(C)NC(=S)NC2CO)cc1F (centres unmarked) [72″, 4-hydroxymethyl-6-methyl-2-thioxo-1,2,3,4-tetrahydro-pyrimidine-5-carboxylic acid 2-(4-ethyl-3-fluoro-phenyl)-ethyl ester] | 400 | < 1000 | – |
| CC1=C(C(=O)OCc2cc(Cl)ccc2[N+](=O)[O-])C(CF)NC(=S)N1 (centres unmarked) [78′, 4-fluoromethyl-6-methyl-2-thioxo-1,2,3,4-tetrahydro-pyrimidine-5-carboxylic acid 5-chloro-2-nitro-benzyl ester] | 11000 | 10000 to 20000 | – |
| COc1ccc(Cl)cc1CCOC(=O)C1=C(C)NC(=S)NC1CO (centres unmarked) [56″, 4-hydroxymethyl-6-methyl-2-thioxo-1,2,3,4-tetrahydro-pyrimidine-5-carboxylic acid 2-(5-chloro-2-methoxy-phenyl)-ethyl ester] | 600 | < 1000 | – |
| CC1=C(C(=O)OCCc2ccc(F)cc2)CNC(=S)N1 [Compound 93, 6-methyl-2-thioxo-1,2,3,4-tetrahydro-pyrimidine-5-carboxylic acid 2-(4-fluoro-phenyl)-ethyl ester] | – | – | 700 |
| CC(=O)OCC1NC(=S)NC(C)=C1C(=O)OCCc1cccc(Cl)c1 (centres unmarked) [44″, 4-acetoxymethyl-6-methyl-2-thioxo-1,2,3,4-tetrahydro-pyrimidine-5-carboxylic acid 2-(3-chloro-phenyl)-ethyl ester] | 5000 | 1000 to 10000 | – |
| CC1=C(C(=O)OCc2ccc(C)cc2)CNC(=S)N1 [Compound 89, 6-methyl-2-thioxo-1,2,3,4-tetrahydro-pyrimidine-5-carboxylic acid 4-methyl-benzyl ester] | 800 | < 1000 | – |
| CC1=C(C(=O)OCCCc2cccnc2)CNC(=S)N1 [Compound 158, 6-methyl-2-thioxo-1,2,3,4-tetrahydro-pyrimidine-5-carboxylic acid 3-pyridin-3-yl-propyl ester] | > 100000 | > 20000 | – |
| CC1=C(C(=O)OCCc2c(F)c(F)cc(F)c2F)C(CF)NC(=S)N1 (centres unmarked) [65′, 4-fluoromethyl-6-methyl-2-thioxo-1,2,3,4-tetrahydro-pyrimidine-5-carboxylic acid 2-(2,3,5,6-tetrafluoro-phenyl)-ethyl ester] | 1400 | 1000 to 10000 | – |

| SMILES | IC50 [1] [nM] | IC50 [2] [nM] | IC50 [3] [nM] |
| --- | --- | --- | --- |
| CC1=C(C(=O)OCCc2nc3ccccc3o2)CNC(=S)N1 [Compound 265, 6-methyl-2-thioxo-1,2,3,4-tetrahydro-pyrimidine-5-carboxylic acid 2-benzoxazol-2-yl-ethyl ester] | 6000 | 1000 to 10000 | – |
| CCOC(=O)C1NC(=S)NC(C)=C1C(=O)OCCc1ccsc1 (centres unmarked) [6′, 6-methyl-2-thioxo-1,2,3,4-tetrahydro-pyrimidine-4,5-dicarboxylic acid 4-ethyl ester 5-(2-thiophen-3-yl-ethyl) ester] | > 100000 | > 20000 | – |
| CC1=C(C(=O)OCCc2cccc(OC(F)(F)F)c2)C(CO)NC(=S)N1 (centres unmarked) [75″, 4-hydroxymethyl-6-methyl-2-thioxo-1,2,3,4-tetrahydro-pyrimidine-5-carboxylic acid 2-(3-trifluoromethoxy-phenyl)-ethyl ester] | < 400 | < 1000 | – |
| CC1=C(C(=O)OCC=Cc2ccco2)CNC(=S)N1 [Compound 251, 6-methyl-2-thioxo-1,2,3,4-tetrahydro-pyrimidine-5-carboxylic acid 3-furan-2-allyl ester] | – | – | 1600 |
| CC1=C(C(=O)OCCc2cc(C)cc(C)c2)C(CO)NC(=S)N1 (centres unmarked) [37″, 4-hydroxymethyl-6-methyl-2-thioxo-1,2,3,4-tetrahydro-pyrimidine-5-carboxylic acid 2-(3,5-dimethyl-phenyl)-ethyl ester] | 800 | < 1000 | – |
| CC1=C(C(=O)OCCCc2cc3ccccc3s2)C(CF)NC(=S)N1 (centres unmarked) [58′, 4-fluoromethyl-6-methyl-2-thioxo-1,2,3,4-tetrahydro-pyrimidine-5-carboxylic acid 3-benzo[b]thiophen-2-yl-propyl ester] | 8000 | 1000 to 10000 | – |
| CC1=C(C(=O)OCc2ccsc2)CNC(=S)N1 [Compound 139, 6-methyl-2-thioxo-1,2,3,4-tetrahydro-pyrimidine-5-carboxylic acid thiophen-3-ylmethyl ester] | 7000 | 1000 to 10000 | – |
| COC(=O)C1=C(C(=O)OCc2ccccc2)CNC(=S)N1 [Compound 196, 2-thioxo-1,2,3,6-tetrahydro-pyrimidine-4,5-dicarboxylic acid 5-benzyl ester 4-methyl ester] | 43000 | > 20000 | – |
| CC1=C(C(=O)OCc2cc(F)cc(F)c2)C(CF)NC(=S)N1 (centres unmarked) [69′, 4-fluoromethyl-6-methyl-2-thioxo-1,2,3,4-tetrahydro-pyrimidine-5-carboxylic acid 3,5-difluoro-benzyl ester] | 3000 | 1000 to 10000 | – |
| CCOC(=O)CCCC1=C(C(=O)OCc2ccccc2)CNC(=S)N1 [Compound 169, 6-(3-ethoxycarbonyl-propyl)-2-thioxo-1,2,3,4-tetrahydro-pyrimidine-5-carboxylic acid benzyl ester] | 9000 | 1000 to 10000 | – |
| CC1=C(C(=O)OCC#Cc2ccsc2)CNC(=S)N1 [Compound 240, 6-methyl-2-thioxo-1,2,3,4-tetrahydro-pyrimidine-5-carboxylic acid 3-thiophen-3-yl-prop-2-inyl ester] | – | – | < 400 |
| CSc1ccccc1COC(=O)C1=C(C)NC(=S)NC1 [Compound 110, 6-methyl-2-thioxo-1,2,3,4-tetrahydro-pyrimidine-5-carboxylic acid 2-methylsulfanyl-benzyl ester] | 17000 | 1000 to 10000 | – |
| CC1=C(C(=O)OCc2cc(C)ccc2C)CNC(=S)N1 [Compound 149, 6-methyl-2-thioxo-1,2,3,4-tetrahydro-pyrimidine-5-carboxylic acid 2,5-dimethyl-benzyl ester] | < 400 | < 1000 | – |
| CC1=C(C(=O)OCc2ccco2)CNC(=S)N1 [Compound 12, 6-methyl-2-thioxo-1,2,3,4-tetrahydro-pyrimidine-5-carboxylic acid furan-2-ylmethyl ester] | 22000 | 10000 to 20000 | – |
| CCN(CCOC(=O)C1=C(C)NC(=S)NC1)c1cccc(C)c1 [Compound 59, 6-methyl-2-thioxo-1,2,3,4-tetrahydro-pyrimidine-5-carboxylic acid 2-(ethyl-m-tolyl-amino)-ethyl ester] | 3000 | 1000 to 10000 | – |
| CC1=C(C(=O)OCCc2cccs2)CNC(=S)N1 [Compound 206, 6-methyl-2-thioxo-1,2,3,4-tetrahydro-pyrimidine-5-carboxylic acid 2-thiophen-2-yl-ethyl ester] | 600 | < 1000 | – |
| CC1=C(C(=O)OCc2ccc(Cl)cc2Cl)CNC(=S)N1 [Compound 41, 6-methyl-2-thioxo-1,2,3,4-tetrahydro-pyrimidine-5-carboxylic acid 2,4-dichloro-benzyl ester] | < 400 | < 1000 | – |

— US20060116390A1, “Hepatitis c virus inhibitors” (priority 2003, published 2006)
